# Measurements published in patent US10370356B2, “Pyridinone dicarboxamide for use as bromodomain inhibitors” (GlaxoSmithKline Intellectual Property (No. 2) Limited, priority 2015, dated 2019).
# Counter-ions that a name gives are not always drawn.
# Target: T1, BRD4 BD2 (Homo sapiens, UniProt O60885, Y97A)
# T1 construct: BRD4 (1-477) (Y97A) and (Y390A); made in house; host or cells: E. coli (pET15b vector)
# Test: BRD4 BD2 mutant TR-FRET competition assay
# Type: binding
# Conditions: average of N recorded values, read-out: BRD4 BD2 IC50 (average value) (converted)
row,SMILES,IC50
1,"CNC(=O)c1cc(C(=O)NCCCC2CCNCC2)cn(Cc2ccccc2)c1=O [Example 6a, 1-Benzyl-N^3-methyl-2-oxo-N^5-(3-(piperidin-4-yl)propyl)-1,2-dihydropyridine-3,5-dicarboxamide]",31.6 nM
2,CNC(=O)c1cc(C(=O)NCCCC2CCN(CCO)CC2)cn(Cc2ccccc2)c1=O [Example 25],39.8 nM
3,"CNC(=O)c1cc(C(=O)NCCCC2CCNCC2)cn(Cc2cccc3[nH]ccc23)c1=O [Example 30, 1-((1H-Indol-4-yl)methyl)-N^3-methyl-2-oxo-N^5-(3-(piperidin-4-yl)propyl)-1,2-dihydropyridine-3,5-dicarboxamide]",10 nM

# Same assay, conditions: read-out: pIC50 in the BRD4 BD2 assay (converted)
row,SMILES,IC50
1,CNC(=O)c1cc(C(=O)NCCCC2CCN(C(C)=O)CC2)cn(Cc2cccc3[nH]ccc23)c1=O [Example 74],≤ 100 nM
2,"CNC(=O)c1cc(C(=O)NC2CCCS(=O)(=O)C2)cn(Cc2ccccc2)c1=O (stereo not drawn) [Example 42, 1-Benzyl-N^5-(1,1-dioxidotetrahydro-2H-thiopyran-3-yl)-N^3-methyl-2-oxo-1,2-dihdyropyridine-3,5-dicarboxamide]",1000 to 100000 nM
3,"CNC(=O)c1cc(C(=O)NCCC2CCNCC2)cn(Cc2cccc(OC)c2)c1=O [Example 20, 1-(3-Methoxybenzyl)-N^3-methyl-2-oxo-N^5-(2-(piperidin-4-yl)ethyl)-1,2-dihydropyridine-3,5-dicarboxamide]",100 to 1000 nM
4,"CCNC(=O)c1cc(C(=O)NCC[C@@H]2CNCCO2)cn(Cc2ccccc2)c1=O [Example 83, (R)-1-benzyl-N^3-ethyl-N^5-(2-(morpholin-2-yl)ethyl)-2-oxo-1,2-dihydropyridine-3,5-dicarboxamide]",100 to 1000 nM
5,"CNC(=O)c1cc(C(=O)NC2CN(C(=O)OC(C)(C)C)C2)cn(Cc2ccccc2)c1=O [Example 4, tert-Butyl 3-(1-benzyl-5-(methylcarbamoyl)-6-oxo-1,6-dihydropyridine-3-carboxamido)azetidine-1-carboxylate]",100 to 1000 nM
6,"CCNC(=O)c1cc(C(=O)NCCCC2CCNCC2)cn(Cc2ccccc2)c1=O [Example 78, 1-benzyl-N^3-ethyl-2-oxo-N^5-(3-(piperidin-4-yl)propyl)-1,2-dihydropyridine-3,5-dicarboxamide]",100 to 1000 nM
7,"CNC(=O)c1cc(C(=O)NCCCN2CCNCC2)cn(Cc2ccccc2)c1=O [Example 12, 1-Benzyl-N^3-methyl-2-oxo-N^5-(3-(piperazin-1-yl)propyl)-1,2-dihydropyridine-3,5-dicarboxamide, hydrochloride]",≤ 100 nM
8,CNC(=O)c1cc(C(=O)NCCCC2CCN(C(=O)OC(C)(C)C)CC2)cn(Cc2ccccc2)c1=O [Example 5],100 to 1000 nM
9,"CNC(=O)c1cc(C(=O)NCCOC2CCNCC2)cn(Cc2ccccc2)c1=O [Example 89, 1-benzyl-N^3-methyl-2-oxo-N^5-(2-(piperidin-4-yloxy)ethyl)-1,2-dihydropyridine-3,5-dicarboxamide hydrochloride]",100 to 1000 nM
10,"CNC(=O)c1cc(C(=O)N[C@H]2[C@@H]3CNC[C@@H]32)cn(Cc2ccccc2)c1=O [Example 76, 1-Benzyl-N^5-((1R,5S,6s)-3-azabicyclo[3.1.0]hexan-6-yl)-N^3-methyl-2-oxo-1,2-dihydropyridine-3,5-dicarboxamide]",≤ 100 nM
11,"CNC(=O)c1cc(C(=O)NCCCC2CCCN(C)C2)cn(Cc2ccccc2)c1=O (stereo not drawn) [Example 70, 1-Benzyl-N^3-methyl-N^5-(3-(1-methylpiperidin-3-yl)propyl)-2-oxo-1,2-dihydropyridine-3,5-dicarboxamide]",≤ 100 nM
12,"CNC(=O)c1cc(C(=O)NCCC2CN(C)CCO2)cn(Cc2ccccc2)c1=O (stereo not drawn) [Example 64, 1-benzyl-N^3-methyl-N^5-(2-(4-methylmorpholin-2-yl)ethyl)-2-oxo-1,2-dihydropyridine-3,5-dicarboxamide]",100 to 1000 nM
13,"CNC(=O)c1cc(C(=O)N[C@H]2[C@@H]3CN(CCNC(C)=O)C[C@@H]32)cn(Cc2cccc3[nH]ccc23)c1=O [Example 87, 1-((1H-Indol-4-yl)methyl)-N^5-((1R,5S,6s)-3-(2-acetamidoethyl)-3-azabicyclo[3.1.0]hexan-6-yl)-N^3-methyl-2-oxo-1,2-dihydrouridine-3,5-dicarboxamide]",≤ 100 nM
14,"CCN1CCC(CCCNC(=O)c2cc(C(=O)NC)c(=O)n(Cc3ccccc3)c2)CC1 [Example 11, 1-Benzyl-N^5-(3-(1-ethylpiperidin-4-yl)propyl)-N^3-methyl-2-oxo-1,2-dihydropyridine-3,5-dicarboxamide]",≤ 100 nM
15,"CNC(=O)c1cc(C(=O)N[C@H]2[C@@H]3CN(C(C)=O)C[C@@H]32)cn(Cc2cccc3[nH]ccc23)c1=O [Example 81, 1-((1H-Indol-4-yl)methyl)-N^5-((1R,5S,6s)-3-acetyl-3-azabicyclo[3.1.0]hexan-6-yl)-N^3-methyl-2-oxo-1,2-dihydropyridine-3,5-dicarboxamide]",≤ 100 nM
16,"CNC(=O)c1cc(C(=O)NCCCC2CCNCC2)cn(Cc2ccccc2F)c1=O [Example 14, 1-(2-Fluorobenzyl)-N^3-methyl-2-oxo-N^5-(3-(piperidin-4-yl)propyl)-1,2-dihydropyridine-3,5-dicarboxamide]",≤ 100 nM
17,"CNC(=O)c1cc(C(=O)NC2CN(C)C2)cn(Cc2ccccc2)c1=O [Example 34, 1-Benzyl-N^3-methyl-N^5-(1-methylazetidin-3-yl)-2-oxo-1,2-dihdyropyridine-3,5-dicarboxamide]",1000 to 100000 nM
18,"CNC(=O)c1cc(C(=O)NCCC2CCNCC2)cn(Cc2cccc(C)c2F)c1=O [Example 27, 1-(2-Fluoro-3-methylbenzyl)-N^3-methyl-2-oxo-N^5-(2-(piperidin-4-yl)ethyl)-1,2-dihydropyridine-3,5-dicarboxamide]",100 to 1000 nM

row,SMILES,IC50
1,"CNC(=O)c1cc(C(=O)NC2CNC2)cn(Cc2ccccc2)c1=O [Example 33, N^5-(Azetidin-3-l)-1-benzyl-N^3-methyl-2-oxo-1,2-dihydropyridine-3,5-dicarboxamide]",100 to 1000 nM
2,"CNC(=O)c1cc(C(=O)NCCC2CNCCO2)cn(Cc2ccccc2)c1=O (stereo not drawn) [Example 66, 1-benzyl-N^3-methyl-N^5-(2-(morpholin-2-yl)ethyl)-2-oxo-1,2-dihydropyridine-3,5-dicarboxamide hydrochloride]",100 to 1000 nM
3,"CNC(=O)c1cc(C(=O)N[C@H]2[C@@H]3COC[C@@H]32)cn(Cc2cccc(OC)c2)c1=O [Example 72, N5-((1R,5S,6r)-3-Oxabicyclo[3.1.0]hexan-6-yl)-1-(3-methoxybenzyl)-N^3-methyl-2-oxo-1,2-dihydropyridine-3,5-dicarboxamide]",≤ 100 nM
4,"CNC(=O)c1cc(C(=O)NCCCC2CCNCC2)cn(Cc2ccccc2)c1=O [Example 6a, 1-Benzyl-N^3-methyl-2-oxo-N^5-(3-(piperidin-4-yl)propyl)-1,2-dihydropyridine-3,5-dicarboxamide]",≤ 100 nM
5,CNC(=O)c1cc(C(=O)NCCCC2CCN(CCO)CC2)cn(Cc2ccccc2)c1=O [Example 25],≤ 100 nM
6,"CNC(=O)c1cc(C(=O)NCCCC2(F)CCNCC2)cn(Cc2ccccc2)c1=O [Example 61, 1-Benzyl-N^5-(3-(4-fluoropiperidin-4-yl)propyl)-N^3-methyl-2-oxo-1,2-dihydropyridine-3,5-dicarboxamide hydrochloride]",≤ 100 nM
7,"CNC(=O)c1cc(C(=O)NCCCN2CCOCC2)cn(Cc2ccccc2)c1=O [Example 37, 1-Benzyl-N^3-methyl-N^5-(3-morpholinopropyl)-2-oxo-1,2-dihydropyridine-3,5-dicarboxamide]",100 to 1000 nM
8,"CNC(=O)c1cc(C(=O)NC2COC2)cn(Cc2ccccc2)c1=O [Example 91, 1-benzyl-N^3-methyl-N^5-(oxetan-3-yl)-2-oxo-1,2-dihydropyridine-3,5-dicarboxamide]",100 to 1000 nM
9,"CNC(=O)c1cc(C(=O)N[C@H]2[C@@H]3CN(C(=O)OC(C)(C)C)C[C@@H]32)cn(Cc2ccccc2)c1=O [Example 75, (1R,5S,6s)-Tert-butyl 6-(1-benzyl-5-(methylcarbamoyl)-6-oxo-1,6-dihydropyridine-3-carboxamido)-3-azabicyclo[3.1.0]hexane-3-carboxylate]",≤ 100 nM
10,"CNC(=O)c1cc(C(=O)NCC2CCS(=O)(=O)C2)cn(Cc2ccccc2)c1=O (stereo not drawn) [Example 48, 1-Benzyl-N^5-((1,1-dioxidotetrahydrothiophen-3-yl)methyl)-N^3-methyl-2-oxo-1,2-dihydropyridine-3,5-dicarboxamide]",1000 to 100000 nM
11,"CNC(=O)c1cc(C(=O)NCCCC2CCNCC2)cn(Cc2cccc3[nH]ccc23)c1=O [Example 30, 1-((1H-Indol-4-yl)methyl)-N^3-methyl-2-oxo-N^5-(3-(piperidin-4-yl)propyl)-1,2-dihydropyridine-3,5-dicarboxamide]",≤ 100 nM
12,"CNC(=O)c1cc(C(=O)NCCOC2CCNC2)cn(Cc2ccccc2)c1=O (stereo not drawn) [Example 67, 1-benzyl-N3-methyl-2-oxo-N5-(2-(pyrrolidin-3-yloxy)ethyl)-1,2-dihydropyridine-3,5-dicarboxamide, hydrochloride]",100 to 1000 nM
13,"CNC(=O)c1cc(C(=O)NC2CCS(=O)(=O)CC2)cn(Cc2ccccc2)c1=O [Example 44, 1-Benzyl-N^5-(1,1-dioxidotetrahydro-2H-thiopyran-4-yl)-N^3-methyl-2-oxo-1,2-dihydropyridine-3,5-dicarboxamide]",100 to 1000 nM
14,"CNC(=O)c1cc(C(=O)NCCC2CCCCN2)cn(Cc2ccccc2)c1=O (stereo not drawn) [Example 40, 1-Benzyl-N^3-methyl-2-oxo-N^5-(2-(piperidin-2-yl)ethyl)-1,2-dihydropyridine-3,5-dicarboxamide hydrochloride]",100 to 1000 nM
15,"CNC(=O)c1cc(C(=O)NCCOC2CCCNC2)cn(Cc2ccccc2)c1=O (stereo not drawn) [Example 68, 1-benzyl-N^3-methyl-2-oxo-N^5-(2-(piperidin-3-yloxy)ethyl)-1,2-dihydropyridine-3,5-dicarboxamide]",100 to 1000 nM
16,"CNC(=O)c1cc(C(=O)N[C@H]2[C@@H]3CN(C(=O)OC(C)(C)C)C[C@@H]32)cn(Cc2cccc3[nH]ccc23)c1=O [Example 79, (1R,5S,6s)-tert-Butyl 6-(1-((1H-indol-4-yl)methyl)-5-(methylcarbamoyl)-6-oxo-1,6-dihydropyridine-3-carboxamido)-3-azabicyclo[3.1.0]hexane-3-carboxylate]",≤ 100 nM
17,"CNC(=O)c1cc(C(=O)NCCCC2CCNCC2)cn([C@H](C)c2ccccc2)c1=O [Example 17, (R)-N^3-Methyl-2-oxo-1-(1-phenylethyl)-N^5-(3-(piperidin-4-yl)propyl)-1,2-dihydropyridine-3,5-dicarboxamide]",≤ 100 nM
18,"CNC(=O)c1cc(C(=O)NCCC2CCN(C)CC2)cn(Cc2ccccc2)c1=O [Example 3, 1-Benzyl-N^3-methyl-N^5-(2-(1-methylpiperidin-4-yl)ethyl)-2-oxo-1,2-dihydropyridine-3,5-dicarboxamide]",≤ 100 nM
